The target in data set [1] is T1, Amine oxidase [flavin-containing] A (Homo sapiens, UniProt P21397).
T1 sequence (P21397 whole entry): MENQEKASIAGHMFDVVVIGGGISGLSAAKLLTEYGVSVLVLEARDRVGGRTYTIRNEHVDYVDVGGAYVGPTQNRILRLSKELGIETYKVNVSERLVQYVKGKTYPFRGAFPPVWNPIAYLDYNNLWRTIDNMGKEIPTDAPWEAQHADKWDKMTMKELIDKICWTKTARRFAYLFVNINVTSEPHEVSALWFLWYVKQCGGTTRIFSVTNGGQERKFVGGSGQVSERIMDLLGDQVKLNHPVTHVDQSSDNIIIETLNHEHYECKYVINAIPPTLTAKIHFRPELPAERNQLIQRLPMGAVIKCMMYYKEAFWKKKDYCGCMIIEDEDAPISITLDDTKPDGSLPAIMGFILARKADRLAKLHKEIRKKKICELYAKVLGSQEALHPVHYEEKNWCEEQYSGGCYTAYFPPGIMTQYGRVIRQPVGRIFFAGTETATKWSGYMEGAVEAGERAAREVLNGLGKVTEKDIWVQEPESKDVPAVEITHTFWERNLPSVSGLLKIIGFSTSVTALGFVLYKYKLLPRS
Description: DRUGMATRIX: Monoamine Oxidase MAO-A enzyme inhibition (substrate: Kynuramine). Details: species or system BTI-TN-5B1-4. As to conditions: Not Active = under 50% inhibition at 10 µM.

For data set [2], the target named is T2, Alpha-1D adrenergic receptor (Homo sapiens, UniProt P25100). Note: in other assays of this panel Not Active means under 50% inhibition at 10 µM.
T2 sequence (P25100 whole entry): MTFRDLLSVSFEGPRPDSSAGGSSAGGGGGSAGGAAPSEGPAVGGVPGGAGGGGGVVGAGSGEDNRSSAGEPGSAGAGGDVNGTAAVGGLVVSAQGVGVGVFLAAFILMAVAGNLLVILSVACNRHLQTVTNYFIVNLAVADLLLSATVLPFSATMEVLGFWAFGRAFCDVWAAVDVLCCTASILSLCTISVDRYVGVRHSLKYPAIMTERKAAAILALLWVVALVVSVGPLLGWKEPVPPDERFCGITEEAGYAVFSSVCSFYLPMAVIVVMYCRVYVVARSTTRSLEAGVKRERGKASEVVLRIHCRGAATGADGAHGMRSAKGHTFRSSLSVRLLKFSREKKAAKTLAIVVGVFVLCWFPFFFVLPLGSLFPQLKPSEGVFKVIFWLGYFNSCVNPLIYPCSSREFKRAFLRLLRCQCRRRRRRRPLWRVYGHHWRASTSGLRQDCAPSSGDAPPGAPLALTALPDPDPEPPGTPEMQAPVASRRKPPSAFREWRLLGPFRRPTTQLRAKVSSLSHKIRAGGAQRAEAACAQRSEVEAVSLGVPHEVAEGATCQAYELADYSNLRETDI
The format is cell membranes, HEK293, Membrane.

The target of a further data set is Cytochrome P450 2E1 (Homo sapiens, UniProt P05181). As to conditions: bti-tn-5b1-4. Note: in other assays of this panel Not Active means under 50% inhibition at 10 µM.
Cytochrome P450 2E1, sequence (P05181 whole entry): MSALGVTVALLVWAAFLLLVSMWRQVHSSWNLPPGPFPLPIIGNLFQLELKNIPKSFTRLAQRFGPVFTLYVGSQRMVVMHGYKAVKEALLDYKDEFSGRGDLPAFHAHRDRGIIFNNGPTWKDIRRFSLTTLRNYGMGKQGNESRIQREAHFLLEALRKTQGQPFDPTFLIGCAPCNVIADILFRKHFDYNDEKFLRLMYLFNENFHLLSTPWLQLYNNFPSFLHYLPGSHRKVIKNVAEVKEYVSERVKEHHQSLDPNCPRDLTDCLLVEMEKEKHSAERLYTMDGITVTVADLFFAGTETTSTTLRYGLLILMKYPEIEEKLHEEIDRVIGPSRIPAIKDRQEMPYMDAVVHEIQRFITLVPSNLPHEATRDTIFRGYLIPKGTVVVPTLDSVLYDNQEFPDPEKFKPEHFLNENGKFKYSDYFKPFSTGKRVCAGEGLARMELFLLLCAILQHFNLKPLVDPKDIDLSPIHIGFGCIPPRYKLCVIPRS
Data set [3] has as its target Tyrosine-protein kinase Lck (Homo sapiens, UniProt P06239). Description: DRUGMATRIX: Protein Tyrosine Kinase, LCK enzyme inhibition (substrate: Poly(Glu:Tyr)). The format is cell-based, Insect cells. The conditions noted are these: insect cells; Not Active = under 50% inhibition at 10 µM.
The next data set concerns the target T3, Neutrophil elastase (Homo sapiens, UniProt P08246).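 Note: inhibition of neutrophil elastase enzyme activity, measured with a p-nitroanilide-linked peptide substrate; in other assays of this panel Not Active means under 50% inhibition at 10 µM.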
T3 sequence (P08246 whole entry): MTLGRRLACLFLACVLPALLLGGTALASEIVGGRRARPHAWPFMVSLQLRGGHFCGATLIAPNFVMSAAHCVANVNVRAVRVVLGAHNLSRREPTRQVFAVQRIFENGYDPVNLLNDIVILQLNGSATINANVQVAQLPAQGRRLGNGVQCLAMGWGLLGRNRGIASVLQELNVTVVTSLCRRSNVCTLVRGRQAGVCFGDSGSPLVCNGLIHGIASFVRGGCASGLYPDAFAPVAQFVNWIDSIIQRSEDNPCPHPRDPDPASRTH
In kind it is tissue-based.

Data set [4] addresses T4, Cysteinyl leukotriene receptor 1 (Homo sapiens, UniProt Q9Y271).
T4 sequence (Q9Y271 whole entry): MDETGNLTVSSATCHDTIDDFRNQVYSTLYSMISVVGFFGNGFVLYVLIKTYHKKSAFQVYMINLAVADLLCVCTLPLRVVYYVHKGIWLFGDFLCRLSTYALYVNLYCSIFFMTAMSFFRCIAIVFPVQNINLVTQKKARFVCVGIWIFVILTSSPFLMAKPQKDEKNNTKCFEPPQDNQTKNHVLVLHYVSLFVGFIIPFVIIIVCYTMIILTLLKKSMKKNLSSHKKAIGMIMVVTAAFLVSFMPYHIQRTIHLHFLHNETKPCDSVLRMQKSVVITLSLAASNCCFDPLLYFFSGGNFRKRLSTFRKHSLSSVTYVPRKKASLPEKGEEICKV
The format is cell membranes, CHO-K1, Membrane. The conditions noted are these: cho-k1.

Data set [5] can be described thus: DRUGMATRIX: ATPase, Na+/K+ enzyme inhibition (substrate: ATP). The format is tissue-based, Sus scrofa, Heart. The conditions noted are these: Not Active = under 50% inhibition at 10 µM.

For orientation: IC50 means the concentration at which inhibition is half-maximal. Usually Ki stands for the equilibrium dissociation constant of an inhibitor or competing ligand from its target.

Tyrosine-protein kinase Lck, sequence (P06239 whole entry): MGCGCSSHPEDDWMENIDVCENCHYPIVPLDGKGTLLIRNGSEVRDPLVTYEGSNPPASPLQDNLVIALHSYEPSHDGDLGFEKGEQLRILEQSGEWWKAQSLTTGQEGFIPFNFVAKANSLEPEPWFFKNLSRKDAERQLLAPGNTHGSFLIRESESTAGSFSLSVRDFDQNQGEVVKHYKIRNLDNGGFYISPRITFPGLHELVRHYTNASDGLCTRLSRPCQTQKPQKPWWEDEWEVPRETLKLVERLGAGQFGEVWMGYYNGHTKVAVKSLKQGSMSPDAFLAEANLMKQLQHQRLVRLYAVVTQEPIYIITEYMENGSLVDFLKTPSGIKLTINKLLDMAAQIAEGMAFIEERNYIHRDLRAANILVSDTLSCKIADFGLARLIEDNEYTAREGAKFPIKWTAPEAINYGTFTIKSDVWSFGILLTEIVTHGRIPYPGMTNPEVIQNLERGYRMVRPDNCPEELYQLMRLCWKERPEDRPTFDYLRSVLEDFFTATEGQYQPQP

Consider `CC(=O)[C@]1(O)Cc2c(O)c3c(c(O)c2[C@@H](O[C@H]2C[C@H](N)[C@H](O)[C@H](C)O2)C1)C(=O)c1ccccc1C3=O` [IDARUBICIN], for which the IC50 entry (in data set [1] (bti-tn-5b1-4); in data set [2] (hek293); on Cytochrome P450 2E1; in data set [3]; against Neutrophil elastase; in data set [4]) was “Not Active” throughout. Also, the IC50 entry in data set [5] is given as “Not Active”. For the same molecule, the Ki entry (at Cytochrome P450 2E1; in data set [5]) was “Not Active” each time.

As for `O=C(O)c1ccccc1` [BENZOIC ACID], the IC50 result (in data set [1] (bti-tn-5b1-4); in data set [2] (hek293); at Cytochrome P450 2E1; in data set [3]; against Neutrophil elastase; in data set [4]) was “Not Active” throughout. The half-maximal inhibitory concentration (IC50) entry in data set [5] is “Not Active”. Besides, the Ki result (on Cytochrome P450 2E1; in data set [5]) was “Not Active” in each case.

Regarding `O=C(Nc1ccc(Cl)c(Cl)c1)c1cc(Cl)cc(Cl)c1O` [3,3',4',5-TETRACHLOROSALICYLANILIDE], the IC50 entry (in data set [1] (bti-tn-5b1-4); in data set [2] (hek293); on Cytochrome P450 2E1; in data set [3]; against Neutrophil elastase; in data set [4]) was “Not Active” each time. In addition, the IC50 result in data set [5] is given as “Not Active”. The Ki result (on Cytochrome P450 2E1; in data set [5]) was “Not Active” in each case.

Regarding `CC(C)NCC(O)COc1ccc(CC(N)=O)cc1` (stereo unspecified) [ATENOLOL], the IC50 entry (in data set [1] (bti-tn-5b1-4); in data set [2] (hek293); against Cytochrome P450 2E1; in data set [3]; against Neutrophil elastase; in data set [4]) was “Not Active” each time. The IC50 result in data set [5] is “Not Active”. Moreover, the Ki result (on Cytochrome P450 2E1; in data set [5]) was “Not Active” each time.

As for `OC[C@H]1O[C@@H]2O[C@H]3[C@H](O)[C@@H](O)[C@@H](O[C@H]4[C@H](O)[C@@H](O)[C@@H](O[C@H]5[C@H](O)[C@@H](O)[C@@H](O[C@H]6[C@H](O)[C@@H](O)[C@@H](O[C@H]7[C@H](O)[C@@H](O)[C@@H](O[C@H]1[C@H](O)[C@H]2O)O[C@@H]7CO)O[C@@H]6CO)O[C@@H]5CO)O[C@@H]4CO)O[C@@H]3CO` [ALFADEX], the IC50 result (in data set [1] (bti-tn-5b1-4); in data set [2] (hek293); at Cytochrome P450 2E1; in data set [3]; on Neutrophil elastase; in data set [4]) was “Not Active” in each case. Besides, the IC50 entry in data set [5] was “Not Active”. Besides, the Ki result (at Cytochrome P450 2E1; in data set [5]) was “Not Active” throughout.

As for `CC(=O)Nc1ccc2c(c1)Cc1ccccc1-2` [2-ACETYLAMINOFLUORENE], the IC50 in data set [1] (read-out: IC50) is 59 nM; in data set [2] (hek293), “Not Active”; at Cytochrome P450 2E1 it was “Not Active”; in data set [3], “Not Active”; at Neutrophil elastase, “Not Active”; in data set [4], “Not Active”. Moreover, the IC50 entry in data set [5] was “Not Active”. For the same molecule, the Ki result (on Cytochrome P450 2E1; in data set [5]) was “Not Active” each time.

Regarding `CCN1CCN(c2cc3c(cc2F)c(=O)c(C(=O)O)cn3C2CC2)CC1` [ENROFLOXACIN], the IC50 result (in data set [1] (bti-tn-5b1-4); in data set [2] (hek293); on Cytochrome P450 2E1; in data set [3]; on Neutrophil elastase; in data set [4]) was “Not Active” throughout. For the same molecule, the IC50 result in data set [5] was “Not Active”. Besides, the Ki result (on Cytochrome P450 2E1; in data set [5]) was “Not Active” in each case.

`O=C(O)CO` [GLYCOLIC ACID]: the IC50 result (in data set [1] (bti-tn-5b1-4); in data set [2] (hek293); against Cytochrome P450 2E1; in data set [3]; against Neutrophil elastase; in data set [4]) was “Not Active” each time. In data set [5], the IC50 entry is on record as “Not Active”. The Ki result (on Cytochrome P450 2E1; in data set [5]) was “Not Active” in each case.

With `CN(Cc1cc(Br)cc(Br)c1N)C1CCCCC1` [BROMHEXINE], the IC50 result (in data set [1] (bti-tn-5b1-4); in data set [2] (hek293); against Cytochrome P450 2E1; in data set [3]; against Neutrophil elastase; in data set [4]) was “Not Active” each time. Besides, the IC50 entry in data set [5] is recorded as “Not Active”. The Ki entry (on Cytochrome P450 2E1; in data set [5]) was “Not Active” each time.

Regarding `CC12CCC(CC1)C(C)(C)O2` [EUCALYPTOL], the IC50 entry (in data set [1] (bti-tn-5b1-4); in data set [2] (hek293); against Cytochrome P450 2E1; in data set [3]; against Neutrophil elastase; in data set [4]) was “Not Active” in each case. Moreover, the IC50 entry in data set [5] was “Not Active”. Also, the Ki entry (on Cytochrome P450 2E1; in data set [5]) was “Not Active” throughout.

In the case of `C[C@@H]1[C@H](O)[C@@H](C)/C=C/C=C/C=C/C=C/C=C/C=C/C=C/[C@H](O[C@@H]2O[C@H](C)[C@@H](O)[C@H](N)[C@@H]2O)C[C@@H]2O[C@](O)(C[C@@H](O)C[C@@H](O)[C@H](O)CC[C@@H](O)C[C@@H](O)CC(=O)O[C@H]1C)C[C@H](O)[C@H]2C(=O)O` [AMPHOTERICIN B], the IC50 result (in data set [1] (bti-tn-5b1-4); in data set [2] (hek293); against Cytochrome P450 2E1; in data set [3]; against Neutrophil elastase; in data set [4]) was “Not Active” in each case. Further, the IC50 entry in data set [5] is “Not Active”. Further, the Ki result (at Cytochrome P450 2E1; in data set [5]) was “Not Active” each time.

As for `CCN(CCO)CCCC(C)Nc1ccnc2cc(Cl)ccc12` (stereo unspecified) [HYDROXYCHLOROQUINE], the IC50 entry was “Not Active” in data set [1] (bti-tn-5b1-4); 4770 nM in data set [2] (read-out: IC50); “Not Active” against Cytochrome P450 2E1; “Not Active” in data set [3]; “Not Active” against Neutrophil elastase; “Not Active” in data set [4]. Moreover, in data set [5], the IC50 entry was “Not Active”. Besides, the values for the Ki (in data set [2] (read-out: Ki); at Cytochrome P450 2E1; in data set [5]) were 2350 nM, “Not Active” and “Not Active”, respectively.

Take `CC12CCC(CC1=O)C2(C)C` (stereo unspecified) [CAMPHOR]: the IC50 result (in data set [1] (bti-tn-5b1-4); in data set [2] (hek293); against Cytochrome P450 2E1; in data set [3]; at Neutrophil elastase; in data set [4]) was “Not Active” each time. Also, the IC50 entry in data set [5] was “Not Active”. Further, the Ki result (on Cytochrome P450 2E1; in data set [5]) was “Not Active” in each case.

With `CCC1(c2ccccc2)C(=O)NC(=O)NC1=O` [PHENOBARBITAL], the IC50 entry (in data set [1] (bti-tn-5b1-4); in data set [2] (hek293); at Cytochrome P450 2E1; in data set [3]; against Neutrophil elastase; in data set [4]) was “Not Active” each time. In addition, the IC50 result in data set [5] was “Not Active”. Also, the Ki entry (at Cytochrome P450 2E1; in data set [5]) was “Not Active” each time.

For the molecule `C[N+](C)(C)CCOP(=O)([O-])OC[C@H](O)CO`, the half-inhibitory concentration (IC50) entry (in data set [1] (bti-tn-5b1-4); in data set [2] (hek293); at Cytochrome P450 2E1; in data set [3]; at Neutrophil elastase; in data set [4]) was “Not Active” each time. Moreover, the IC50 result in data set [5] is reported as “Not Active”. The Ki entry (at Cytochrome P450 2E1; in data set [5]) was “Not Active” throughout.

For the origin of these results see ChEMBL document CHEMBL1909046, “DrugMatrix in vitro pharmacology data”.
